The first assay addresses T1, human ERK-2 (Mitogen Activated Kinase 1) (Homo sapiens, UniProt P28482).
T1 construct: N-terminal 6-His fusion protein in E. coli and corresponding to aa 8-360; 6-His (N); made in house; host or cells: E. coli
Kind of assay: ERK-2 Enzymatic Assay. The conditions noted are these: TABLE I; 5nM ERK-2 enzyme, 25µM ATP, S/T17 peptide substrate; single assay or mean of multiple assays. The format is biochemical. On the procedure: Compounds were tested in an enzymatic assay using human ERK-2 (Mitogen Activated Kinase 1), recombinantly expressed as an N-terminal 6-His fusion protein in E. coli and corresponding to aa 8-360. The substrate used was the fluorescent Omnia peptide S/T17 (Invitrogen of Carlsbad, CA; Cat. KNZ1171C). Test compounds were diluted in DMSO in 3-fold serial dilutions at 100x final concentrations. […] The assay was run at ambient temperature in a white 384-well polypropylene plate (Nunc, Inc of Naperville, IL; Cat. 267462) collecting data every 50 seconds for approximately 30 minutes on an Envision plate reader (PerkinElmer, Inc. of Waltham, MA); Excitation 340 nm/Emission 495 nm. The data collected from each well was fit to a straight line and the resulting rates were used to calculate percent of control. Percent of control was plotted against compound concentration and IC50 values were determined using a four-parameter fit. Representative data is in TABLE I and TABLE II. The reported IC50 may be from a single assay or the mean of multiple assays.
T1 sequence (P28482 8-360): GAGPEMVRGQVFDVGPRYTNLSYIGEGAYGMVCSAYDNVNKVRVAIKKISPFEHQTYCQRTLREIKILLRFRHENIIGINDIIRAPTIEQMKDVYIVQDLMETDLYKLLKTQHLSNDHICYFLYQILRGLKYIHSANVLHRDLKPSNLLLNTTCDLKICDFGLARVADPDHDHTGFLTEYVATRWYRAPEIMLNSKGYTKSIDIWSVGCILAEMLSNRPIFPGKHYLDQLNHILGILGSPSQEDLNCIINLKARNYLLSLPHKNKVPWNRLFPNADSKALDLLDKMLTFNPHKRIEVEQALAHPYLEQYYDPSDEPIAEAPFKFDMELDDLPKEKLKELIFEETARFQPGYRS
Turning to `COc1ccc([C@H](NC(=O)c2cc(F)c3cnc(N[C@H]4CCOC[C@H]4F)nc3c2)c2cnn(C)c2)cc1F` [Compound I-52, 5-fluoro-N-((S)-(3-fluoro-4-methoxyphenyl)(1-methyl-1H-pyrazol-4-yl)methyl)-2-((3S,4S)-3-fluorotetrahydro-2H-pyran-4-ylamino)quinazoline-7-carboxamide], the half-maximal inhibitory concentration (IC50) is 2.6 nM.
Still for that read-out and setting: the value for `COc1ccc(C(NC(=O)c2cc(F)c3cnc(NC4CCOCC4)nc3c2)c2cnn(C)n2)cc1F` (stereo not drawn) [Compound I-53, 5-Fluoro-2-(tetrahydro-pyran-4-ylamino)-quinazoline-7-carboxylic acid [(3-fluoro-4-methoxy-phenyl)-(2-methyl-2H-[1,2,3]triazol-4-yl)-methyl]-amide] was 6.8 nM; that for `COc1ccc([C@@H](NC(=O)c2cc(F)c3cnc(NC4CCOCC4)nc3c2)c2cnn(C)n2)cc1F` [Compound I-54, 5-Fluoro-2-(tetrahydro-pyran-4-ylamino)-quinazoline-7-carboxylic acid [(R)-(3-fluoro-4-methoxy-phenyl)-(2-methyl-2H-[1,2,3]triazol-4-yl)-methyl]-amide] was 31 nM.
With `Cn1cc([C@@H](NC(=O)c2ccc3cnc(NC4CCOCC4)nc3c2)c2ccc(F)c(Cl)c2)cn1` [Compound I-55, 2-(Tetrahydro-pyran-4-ylamino)-quinazoline-7-carboxylic acid [(S)-(3-chloro-4-fluoro-phenyl)-(1-methyl-1H-pyrazol-4-yl)-methyl]-amide], the IC50 is 2.7 nM.
Still for that read-out and setting: the value for `COc1ccc([C@H](NC(=O)c2ccc3cnc(NC4CCOCC4)nc3c2)c2cnn(C)c2)cc1C#N` [Compound I-56, 2-(Tetrahydro-pyran-4-ylamino)-quinazoline-7-carboxylic acid [(3-cyano-4-methoxy-phenyl)-(1-methyl-1H-pyrazol-4-yl)-methyl]-amide] was 3.5 nM.
Still for that read-out and setting: the value for `COc1ccc([C@H](NC(=O)c2ccc3cnc(N[C@H]4CCO[C@H](COC(C)=O)C4)nc3c2)c2cnn(C)c2)cc1F` [Compound I-57, Acetic acid (2S,4S)-4-(7-{[(S)-(3-fluoro-4-methoxy-phenyl)-(1-methyl-1H-pyrazol-4-yl)-methyl]-carbamoyl}-quinazolin-2-ylamino)-tetrahydro-pyran-2-ylmethyl ester] was 24 nM; that for `COCCNc1ncc2c(F)cc(C(=O)N[C@@H](c3ccc(OC)c(F)c3)c3cnn(C)c3)cc2n1` [Compound I-58, 5-Fluoro-2-(2-methoxy-ethylamino)-quinazoline-7-carboxylic acid [(S)-(3-fluoro-4-methoxy-phenyl)-(1-methyl-1H-pyrazol-4-yl)-methyl]-amide] was 20 nM; that for `COc1ccc([C@H](NC(=O)c2cc(F)c3cnc(NCCCF)nc3c2)c2cnn(C)c2)cc1F` [Compound I-59, 5-Fluoro-2-(3-fluoro-propylamino)-quinazoline-7-carboxylic acid [(S)-(3-fluoro-4-methoxy-phenyl)-(1-methyl-1H-pyrazol-4-yl)-methyl]-amide] was 15 nM.
Same read-out and setting: to `COc1ccc([C@H](NC(=O)c2cc(F)c3cnc(NCC4COC4)nc3c2)c2cnn(C)c2)cc1F` [Compound I-63, 5-Fluoro-2-[(oxetan-3-ylmethyl)-amino]-quinazoline-7-carboxylic acid [(S)-(3-fluoro-4-methoxy-phenyl)-(1-methyl-1H-pyrazol-4-yl)-methyl]-amide] belongs 4 nM; to `Cn1cc([C@@H](NC(=O)c2cc(F)c3cnc(NC4CCOCC4)nc3c2)c2ccc(C#N)c(Cl)c2)cn1` [Compound I-65, 5-Fluoro-2-(tetrahydro-pyran-4-ylamino)-quinazoline-7-carboxylic acid [(S)-(3-chloro-4-cyano-phenyl)-(1-methyl-1H-pyrazol-4-yl)-methyl]-amide], 0.6 nM.
`COc1ccc([C@H](NC(=O)c2cc(F)c3cnc(NC4CCOCC4)nc3c2)c2cnn(C)c2)cc1Cl` [Compound I-66, 5-Fluoro-2-(tetrahydro-pyran-4-ylamino)-quinazoline-7-carboxylic acid [(S)-(3-chloro-4-methoxy-phenyl)-(1-methyl-1H-pyrazol-4-yl)-methyl]-amide] returned a half-maximal inhibitory concentration (IC50) of 0.6 nM. That is a sub-nanomolar value.
Turning to `Cn1cc([C@@H](NC(=O)c2cc(F)c3cnc(NC4CCOCC4)nc3c2)c2cccc(F)c2)cn1` [Compound I-68], 1.3 nM corresponded to half-maximal inhibition (IC50).
Same read-out and setting: to `COc1ccc([C@H](NC(=O)c2cc(F)c3cnc(N[C@@H]4CCOC[C@@H]4F)nc3c2)c2cnn(C)c2)cc1F` [Compound I-70] belongs 4 nM.

The same assay, now with this note: TABLE II; 5nM ERK-2 enzyme, 25µM ATP, S/T17 peptide substrate; single assay or mean of multiple assays.
The compound `COc1ccc([C@H](NC(=O)c2ccc3cnc(NC4CS(=O)(=O)C4)nc3c2)c2cnn(C)c2)cc1F` [II-3] had an IC50 of 52.8 nM.
Still for that read-out and setting: to `COc1ccc([C@@H](NC(=O)c2cc(F)c3cnc(NC4CCOCC4)nc3c2)c2cnn(C)c2)cc1F` [II-4] belongs 15.7 nM.
The same measure, in the same setting: the value for `COc1ccc([C@H](NC(=O)c2ccc3cnc(N[C@H]4C[C@@H](O)C4)nc3c2)c2cnn(C)c2)cc1F` [II-8] was 4.2 nM; that for `COc1ccc([C@H](NC(=O)c2ccc3cnc(N[C@H]4C[C@H](O)C4)nc3c2)c2cnn(C)c2)cc1F` [II-9] was 3.8 nM; that for `COc1ccc([C@H](NC(=O)c2ccc3cnc(NC4CC(OC)C4)nc3c2)c2cnn(C)c2)cc1F` (stereo partly drawn) [II-10] was 13.8 nM.
`COc1ccc([C@H](NC(=O)c2cc(F)c3cnc(NCCC#N)nc3c2)c2cnn(C)c2)cc1F` [II-11] displayed an IC50 of 13.9 nM.
On the same count and under the same terms, the value for `Cn1cc([C@@H](NC(=O)c2cc(F)c3cnc(NC4CCOCC4)nc3c2)c2cccc(F)c2)cn1` [II-12] was 1.2 nM; that for `COc1ccc([C@H](NC(=O)c2cc(F)c3cnc(NC4CCOCC4)nc3c2)c2cnn(C)c2)nc1` [II-14] was 153 nM; that for `COc1ccc([C@H](NC(=O)c2cc(F)c3cnc(N[C@@H]4CCOC[C@@H]4F)nc3c2)c2cnn(C)c2)cc1F` [II-15] was 4.3 nM.
The same measure, in the same setting: to `COc1ccc([C@H](NC(=O)c2ccc3cnc(Nc4ccnn4C)nc3c2)c2cnn(C)c2)cc1F` [II-16] belongs 2.1 nM; to `COc1ccc([C@H](NC(=O)c2ccc3cnc(Nc4ccnc(C)c4)nc3c2)c2cnn(C)c2)cc1F` [II-17], 4.8 nM.
On the same count and under the same terms, to `COc1ccc([C@H](NC(=O)c2cc(F)c3cnc(Nc4cn(C)nc4C)nc3c2)c2cnn(C)c2)cc1F` [II-19] belongs 6.8 nM; to `COc1ccc([C@H](NC(=O)c2cc(F)c3cnc(N[C@@H](C)CO)nc3c2)c2cnn(C)c2)cc1F` [II-21], 2.3 nM.
Compound `COc1ccc([C@H](NC(=O)c2cc(F)c3cnc(NC4CCOCC4)nc3c2)c2cnn(C)c2)cc1` [II-22] registered an IC50 of 7 nM.
With `COc1ccc([C@H](NC(=O)c2cc(F)c3cnc(Nc4ccnn4C)nc3c2)c2cnn(C)c2)cc1F` [II-23], the IC50 was 10.8 nM.
On the same count and under the same terms, to `Cc1cc(Nc2ncc3ccc(C(=O)N[C@@H](c4ccc(Cl)c(F)c4)c4cnn(C)c4)cc3n2)n(C)n1` [II-24] belongs 14.6 nM.
`C[C@@H](CO)Nc1ncc2c(F)cc(C(=O)N[C@@H](c3cccc(F)c3)c3cnn(C)c3)cc2n1` [II-26] yielded an IC50 of 5.6 nM.
Still for that read-out and setting: to `COc1ccc([C@H](NC(=O)c2ccc3cnc(Nc4cn(C)nc4C)nc3c2)c2cnn(C)c2)cc1F` [II-27] belongs 960 nM.
`COc1ccc([C@H](NC(=O)c2ccc3cnc(NC4CCOCC4)nc3c2)c2ccnn2C)cc1F` [II-28]: inhibition was half-maximal at 3 nM (IC50).
Consider `COc1ccc([C@H](NC(=O)c2cc(F)c3cnc(NC4CCOCC4)nc3c2)c2ccnn2C)cc1F` [II-29], for which the IC50 amounted to 2.2 nM.
Still for that read-out and setting: the value for `COc1ccc([C@H](NC(=O)c2ccc3cnc(N[C@H]4C[C@H]5C[C@@H]4CO5)nc3c2)c2cnn(C)c2)cc1F` [II-30] was 1000 nM; that for `COCC(C)Nc1ncc2ccc(C(=O)N[C@@H](c3ccc(OC)c(F)c3)c3cnn(C)c3)cc2n1` (stereo partly drawn) [II-31] was 15 nM; that for `COc1ccc([C@H](NC(=O)c2cc(F)c3cnc(N[C@H]4C[C@@H](F)C4)nc3c2)c2cnn(C)c2)cc1F` [II-33] was 3.8 nM.
On the same count and under the same terms, to `COc1ccc(C(NC(=O)c2cc(F)c3cnc(NC4CC5CC4CO5)nc3c2)c2cnn(C)c2)cc1F` (stereo not drawn) [II-34] belongs 1000 nM; to `COc1ccnc(C(NC(=O)c2cc(F)c3cnc(NC4CCOCC4)nc3c2)c2cnn(C)c2)c1` (stereo not drawn) [II-35], 61 nM.
With `COc1ccc([C@H](NC(=O)c2ccc3cnc(N[C@H]4CCOC[C@H]4F)nc3c2)c2ccnn2C)cc1F` [II-36], the half-maximal inhibitory concentration (IC50) was 3.8 nM.
In turn, `COc1ccc([C@H](NC(=O)c2ccc3cnc(N[C@H]4CCOC[C@@H]4F)nc3c2)c2ccnn2C)cc1F` [II-37] came in with an IC50 of 3.6 nM.
Compound `Cn1nccc1[C@@H](NC(=O)c1ccc2cnc(NC3CCOCC3)nc2c1)c1ccc(Cl)c(F)c1` [II-39] yielded an IC50 of 151 nM.
The same measure, in the same setting: the value for `Cn1nccc1[C@@H](NC(=O)c1ccc2cnc(NC3CCOCC3)nc2c1)c1ccc(C#N)c(Cl)c1` [II-40] was 26 nM; that for `Cn1cc([C@@H](NC(=O)c2ccc3cnc(NC4CCOCC4)nc3c2)c2ccc(C(F)(F)F)c(F)c2)cn1` [II-41] was 5.2 nM; that for `Cn1nccc1Nc1ncc2ccc(C(=O)NC(c3ccc(Cl)c(F)c3)C3(F)CCNC3)cc2n1` (stereo not drawn) [II-42] was 34.6 nM.
`Cn1cc(C(NC(=O)c2ccc3cnc(NC4CCOCC4)nc3c2)c2ccc(OC(F)F)cc2)cn1` (stereo not drawn) [II-43] returned an IC50 of 12.1 nM.

Usually IC50 stands for the concentration that gives 50% inhibition. Read a high IC50 as weaker potency.

(Values after EP2739618B1, “QUINAZOLINE COMPOUNDS AS SERINE/THREONINE KINASE INHIBITORS” (Array Biopharma, Inc., priority 2011, dated 2013).)
